Data taken from patent US7696221B2, “Thienoisoquinoline-phenylsulfonamides and their use as ER-NFκB inhibitors” (Wyeth LLC, priority 2004, dated 2010).

Experiments:
[1] = test system: NF-κB; experiment: NFκB-luciferase assay in Ad5-wt-ER infected HAECT-1 cells; format: cell-based, human; settings: for IC50: IL-1 treated, read-out: ER/NF-KB-luc IC50; for ER/NF-KB-luc % Eff*: relative to the maximal inhibition observed with E2
Description: T-175 flasks of 100% confluent HAECT-1 cells (immortalized human aortic endothelial cells) were washed with 8 ml of HBSS (HEPES buffered saline solution) and infected for four hours with 6 ml of a 1:10 dilution of Ad5-wt-hER virus (an adenovirus transfection vector that mediates CMV promoter driven expression of human ER) in phenol red free Endothelial Cell Basal medium (Clonetics, San Diego Calif., Catalog # CC-3129) containing 0.25% bovine serum albumin (EBM-BSA). After four hours, cells were washed with EBM-BSA and incubated overnight in the same medium. Following overnight incubation, cells were washed with EBM-BSA and infected for 2 hours with 6 ml of a 1:10 dilution of Ad5-3×(NF B).Luc virus (Adenovirus luciferase expression vector driven by 3 repeats of the MHC NF b site 5′ to the thymidine kinase promoter) in EBM-BSA. After two hours, cells were washed and incubated at 34° C. for 1 hour. Cells were then washed, trypsinized, counted and resuspended in 95% FBS/5% dimethylsulfoxide at a concentration of 4×10^6 cells/ml, frozen as 1 or 5 ml aliquots in cryo-vials and stored at −150° C. Control (no ER infection) cells were processed as above without Ad5-wt-hER virus infection.
ER infected HAECT-1 cells or control cells were thawed, diluted 42× in warm EBM-BSA, plated into 96-well plates at 0.1 ml/well and incubated for 4 h at 34° C. Test compounds were added to the cells as 2× stocks in EBM-BSA containing 2 ng/ml IL-1 (R&D Systems) and plates were returned to the incubator (34° C.). After 15-20 h, 100 l aliquots of media were removed from the cells and assayed for IL-6 content using a BioSource human IL-6 ELISA Kit. Cells were subsequently washed with 300 l of Dulbecco's phosphate buffered saline and lysed in 50 l of Cell Culture Lysis Reagent (Promega). Luciferase was determined on a Wallac Victor^2 Luminometer (Gaithersburg, Md.) using 10 l of lysate and mixing with 100 l of Promega Luciferase Assay reagent. Creatine kinase was determined from the rate of increase in A340 following addition of 100 l of CK assay reagent (Sigma, cat. No 47-10) to the remainder of the cell lysate.
For IC50 and EC50 calculations, mean IL-6, luciferase or CK values versus log10 of the compound concentration were fitted to a four parameter logistic equation. The IC50/EC50 value, ‘Hill slope’, upper and lower limits of the curve were iteratively estimated.

[2] = test system: IL-6; experiment: IL-6 assay (ELISA) in Ad5-wt-ER infected HAECT-1 cells; format: cell-based, human; settings: for IC50: IL-1 treated; for ER/IL-6 % Eff: relative to the maximal inhibition observed with E2
Description: (§1) After four hours, cells were washed with EBM-BSA and incubated overnight in the same medium. […] After two hours, cells were washed and incubated at 34° C. for 1 hour. Cells were then washed, trypsinized, counted and resuspended in 95% FBS/5% dimethylsulfoxide at a concentration of 4×10^6 cells/ml, frozen as 1 or 5 ml aliquots in cryo-vials and stored at −150° C. Control (no ER infection) cells were processed as above without Ad5-wt-hER virus infection. […] Cells were subsequently washed with 300 l of Dulbecco's phosphate buffered saline and lysed in 50 l of Cell Culture Lysis Reagent (Promega). Luciferase was determined on a Wallac Victor^2 Luminometer (Gaithersburg, Md.) using 10 l of lysate and mixing with 100 l of Promega Luciferase Assay reagent. Creatine kinase was determined from the rate of increase in A340 following addition of 100 l of CK assay reagent (Sigma, cat. […] For IC50 and EC50 calculations, mean IL-6, luciferase or CK values versus log10 of the compound concentration were fitted to a four parameter logistic equation. The IC50/EC50 value, ‘Hill slope’, upper and lower limits of the curve were iteratively estimated.

[3] = test system: creatine kinase; experiment: Creatine kinase assay in Ad5-wt-ER infected HAECT-1 cells; format: cell-based, human; settings: for ER/CK EC50: N/O = activity not observed at doses tested; for EC50: Homo sapiens, HAECT1, N/O = activity not observed at doses tested, read-out: ER/CK EC50; for ER/CK % Eff*: relative to the maximal stimulation observed with E2
Description: as §1

[4] = Ad5-wt-ER infected HAECT-1 cells
[5] = Homo sapiens, HAECT1, Ad5-wt-ER infected HAECT-1 cells

SMILES: C[C@@H]1c2ccccc2-c2sc(Br)cc2N1S(=O)(=O)c1ccc(O)cc1 [Example 7, 4-{[(5R)-2-bromo-5-methylthieno[3,2-c]isoquinolin-4-(5H)-yl]sulfonyl}phenol]
- IC50 [1]: 1450 nM
- ER/NF-KB-luc % Eff* [1]: 84%
- IC50 [2, 4]: 5820 nM
- ER/IL-6 % Eff [2, 4]: 161%
- ER/CK EC50 [3]: N/O

SMILES: CC1c2ccccc2-c2sc(Br)cc2N1S(=O)(=O)c1ccc(O)cc1 (stereo not drawn) [Example 6, 4-[(2-Bromo-5-methylthieno[3,2-c]isoquinolin-4(5H)-yl)sulfonyl]phenol]
- ER/IL-6 % Eff [2, 4]: 162%
- IC50 [2, 5]: 28.2 nM
- ER/CK EC50 [3]: N/O
- melting point: 209 to 211 °C

SMILES: C[C@H]1c2ccccc2-c2sc(Br)cc2N1S(=O)(=O)c1ccc(O)cc1 [Example 8, 4-{[(5S)-2-bromo-5-methylthieno[3,2-c]isoquinolin-4-(5H)-yl]sulfonyl}phenol]
- IC50 [1]: 19 nM
- ER/NF-KB-luc % Eff* [1]: 92%
- IC50 [2, 4]: 8.9 nM
- ER/IL-6 % Eff [2, 4]: 164%
- ER/CK EC50 [3]: N/O

SMILES: CCC1c2ccccc2-c2sccc2N1S(=O)(=O)c1ccc(O)cc1 (stereo not drawn) [Example 5, 4-[(5-Ethylthieno[3,2-c]isoquinolin-4(5H)-yl)sulfonyl]phenol]
- ER/IL-6 % Eff [2, 4]: 174%
- IC50 [2, 5]: 21.3 nM
- ER/CK EC50 [3]: N/O
- melting point: 169 to 171 °C

SMILES: CCC1c2ccccc2-c2sc(Br)cc2N1S(=O)(=O)c1ccc(O)cc1 (stereo not drawn) [Example 9, 4-[(2-Bromo-5-ethylthieno[3,2-c]isoquinolin-4(5H)-yl)sulfonyl]phenol]
- ER/IL-6 % Eff [2, 4]: 194%
- IC50 [2, 5]: 7.7 nM
- EC50 [3]: 47 nM
- ER/CK % Eff* [3]: 33%
- melting point: 183 to 185 °C

SMILES: CCC1c2ccccc2-c2sc(-c3ccsc3)cc2N1S(=O)(=O)c1ccc(O)cc1 (stereo not drawn) [Example 10, 4-[(5-Ethyl-2-thien-3-ylthieno[3,2-c]isoquinolin-4(5H)-yl)sulfonyl]phenol]
- melting point: 195 to 196 °C

SMILES: CCc1cc2c(s1)-c1ccccc1C(CC)N2S(=O)(=O)c1ccc(O)cc1 (stereo not drawn)
- melting point: 119 to 122 °C

SMILES: C[C@]12CC[C@@H]3c4ccc(O)cc4CC[C@H]3[C@@H]1CC[C@@H]2O [Example E2, 17β-estradiol, reference compound]
- IC50 [2, 4]: 1.7 nM
- ER/IL-6 % Eff [2, 4]: 100%
- EC50 [3]: 5.8 nM
- ER/CK % Eff* [3]: 100%

SMILES: CC1c2ccccc2-c2sc(Br)cc2N1S(=O)(=O)c1ccc(O)c(Br)c1 (stereo not drawn) [Example 12, 2-Bromo-4-[(2-bromo-5-methylthieno[3,2-c]isoquinolin-4(5H)-yl)sulfonyl]phenol]
- ER/IL-6 % Eff [2, 4]: 197%
- IC50 [2, 5]: 1480 nM
- EC50 [3]: 1540 nM
- ER/CK % Eff* [3]: 35%

SMILES: CCC1c2ccccc2-c2sc(-c3ccccc3)cc2N1S(=O)(=O)c1ccc(O)cc1 (stereo not drawn) [Example 11, 4-[(5-Ethyl-2-phenylthieno[3,2-c]isoquinolin-4(5H)-yl)sulfonyl]phenol]
- ER/IL-6 % Eff [2, 4]: 132%
- IC50 [2, 5]: 24.6 nM
- EC50 [3]: 15 nM
- ER/CK % Eff* [3]: 63%

SMILES: CC1c2ccccc2-c2sccc2N1S(=O)(=O)c1ccc(O)cc1 (stereo not drawn) [Example 4, 4-[(5-Methylthieno[3,2-c]isoquinolin-4(5H)-yl)sulfonyl]phenol]
- ER/IL-6 % Eff [2, 4]: 172%
- IC50 [2, 5]: 66.8 nM
- EC50 [3]: 100 nM
- ER/CK % Eff* [3]: 42%
- melting point: 163 to 165 °C
